Data: patent US5270313A, “Sulfonamides and uses” (Hoffmann-La Roche Inc., priority 1991, dated 1993)

Tests used:
[1] = molecular target: endothelin receptors; assay: Inhibition of endothelin binding to human placenta membranes (125I-endothelin); conditions: concentration required to inhibit the specific binding of 125I-endothelin by 50%, 125I-endothelin 20 pM, 20° C. for 2 hours or 4° C. for 24 hours
Method: I. Inhibition of endothelin binding to human placenta membranes (see Life Sci 44:1429 (1989)
Human placenta is homogenized in 5 mM Tris buffer, pH 7.4, which contains 1 mM MgCl2 and 250 mM sucrose. The product of the homogenization is centrifuged at 4° C. for 15 minutes at 3000 g. The supernatant containing the plasma membrane fractions is centrifuged for 30 minutes at 72000 g and the precipitate obtained from, in each case, 10 g of original tissue is suspended in 1 ml of 75 mM Tris buffer, pH 7.4, containing 25 mM MgCl2 and 250 mM sucrose and freeze-dried at -20° C. in 1 ml aliquots.
For the binding assay, the freeze-dried membrane preparations are thawed and, after centrifugation at 20° C. for 10 minutes at 25000 g, re-suspended in assay buffer (50 mM Tris buffer, pH 7.4, containing 25 mM MnCl2, 1 mM EDTA and 0.5% bovine serum albumin). 100 μl of this membrane suspension, containing 70 μg of protein, are incubated with 50 μl of ^125 I-endothelin (specific activity 2200 Ci/mMol) in assay buffer (25000 cpm, final concentration 20 pM) and 100 μl of assay buffer which contains varying concentrations of the test compound. The incubation is carried out at 20° C. for 2 hours or at 4° C. for 24 hours. The separation of free and membrane-bound radioligands is carried out by filtration over a glass fiber filter.
The inhibitory activity of compounds of formula I determined in this test procedure is given in Table 1 as the IC50, that is, as the concentration [μM] which is required to inhibit the specific binding of ^125 I-endothelin by 50%.

[2] = tested on: endothelin-induced contractions in isolated aorta rings; assay: Inhibition of endothelin-induced contractions in isolated aorta rings of the rat; type: cell-based, rat (Wistar-Kyoto); conditions: for Dosage ratio (correcting shift): shift to higher values of the EC50 of endothelin induced by 100 μm of test compound, endothelium removed
Method: II. Inhibition of endothelin-induced contractions in isolated aorta rings of the rat
Rings with a thickness of 5 mm were dissected from the thorax aorta of adult Wistar-Kyoto rats. The endothelium was removed by rubbing the internal surface slightly. Each ring was immersed in an isolated bath at 37° C. in 10 ml of Krebs-Henseleit solution while gassing with 95% O2 and 5% CO2. The isometric tension of the rings was measured. The rings were stretched to an initial tension of 3 g. After incubation with the test compound or vehicle for 10 minutes cumulative doses of endothelin-1 were added. The activity of the test compound was determined by calculating the dosage ratio, that is, the correcting shift (shift to higher values) of the EC50 of endothelin induced by 100 μm of test compound, whereby EC50 denotes the endothelin concentration required for a half-maximum contraction. […] The EC50 of endothelin in the absence of test compounds is 0.3 nM.

[3] = tested on: vasoconstriction; assay: Inhibitory activity on vasoconstriction in vivo in the rat (renal ischemia, renal blood flow); conditions: 10 minutes prior to 45 min renal ischemia, control reduced by 43±4%
Method: III. The inhibitory activity of the compounds of formula I on vasoconstriction can be observed in vivo in the rat in the test procedure described hereinafter:
Rats were anaesthetized with Na thiobutabarbital (100 mg/kg i.p.). […] A Doppler probe was placed around the left renal artery and attached to a Doppler measuring device. A renal ischemia was produced by pinching off the left renal artery at its point of emergence for 45 minutes. The test compounds were administered 10 minutes prior to the onset of the ischemia intra-arterially (i.a.) in doses of 5 mg/kg or intraveneously (i.v) in doses of 10 mg/kg. In control experiments, the renal blood flow was reduced by 43±4% in comparison to the pre-ischemic value.

Row | Compound | IC50 [1] | Dosage ratio (correcting shift) [2] | % Decrease in the renal of blood flow ([3]; i.a., 5 mg/kg) | % Decrease in the renal of blood flow ([3]; i.v., 10 mg/kg) | EC50 ([2]; in the absence of test compounds, half-maximum contraction)
1 | O=S(=O)(Nc1ncnc(OCCO)c1-c1ccc(Cl)cc1)c1ccc(C(F)(F)F)cc1 [Example 1, N-[5-(p-chlorophenyl)-6-(2-hydroxyethoxy)-4-pyrimidinyl]-α,α,α-trifluoro-p-toluenesulfonamide] | 5000 nM | 30 | 7% |  | 
2 | COc1ccc(-c2c(NS(=O)(=O)c3ccc(C(C)C)cc3)ncnc2OCCO)cc1 [Example 54, N-[6-(2-hydroxyethoxy)-5-(p-methoxyphenyl)-4-pyrimidinyl]-p-isopropylbenzene-sulfonamide] | 3000 nM | 21 |  |  | 
3 | Cc1ccc(-c2c(NS(=O)(=O)c3ccc(C(C)C)cc3)ncnc2OCCO)cc1 [Example 83] | 700 nM | 86 |  | 29% | 
4 | Cc1ccc(-c2c(NS(=O)(=O)c3ccc(C(C)(C)C)cc3)ncnc2OCCO)cc1 [Example 84, p-tert-butyl-N-[6-(2-hydroxyethoxy)-5-p-tolyl-4-pyrimidinyl]benzenesulfonamide] | 1000 nM | 106 |  |  | 
5 | endothelin: endothelin-1, contractile agonist added in cumulative doses to rat aorta rings [reference compound] |  |  |  |  | 0.3 nM

The next lines start with results.

Row | IC50 [1] | Compound | Dosage ratio (correcting shift) [2] | % Decrease in the renal of blood flow ([3]; i.a., 5 mg/kg) | % Decrease in the renal of blood flow ([3]; i.v., 10 mg/kg) | EC50 ([2]; in the absence of test compounds, half-maximum contraction)
6 | 1600 nM | COc1ccccc1Cc1c(NS(=O)(=O)c2ccc(C(C)C)cc2)ncnc1OCCO [Example 63] | 23 |  |  | 
7 | 2000 nM | COc1ccccc1Cc1c(NS(=O)(=O)c2ccc(C(C)(C)C)cc2)ncnc1OCCO [Example 64, p-t-butyl-N-[6-(2-hydroxyethoxy)-5-(o-methoxy-benzyl)-4-pyrimidinyl]benzenesulfonamide] | 19 |  |  | 
8 | 500 nM | CSc1ccccc1Cc1c(NS(=O)(=O)c2ccc(C(C)C)cc2)ncnc1OCCO [Example 66] | 96 |  |  | 
